The results in this text go back to ChEMBL document CHEMBL3632519, “Withanolides and Sucrose Esters from Physalis neomexicana” (J Nat Prod, 2015).

Molecules are shown by their SMILES.

One test has as its system MDA-MB-231. Briefly: Cytotoxicity against human MDA-MB-231 cells by MTT assay. The class given is functional, cell-based.
A further test has as its system MCF7. Briefly: Cytotoxicity against human MCF7 cells by MTT assay. The class given is functional, cell-based.

Consider `CC(=O)O[C@H]1C[C@H]([C@@](C)(O)[C@@H]2C[C@H](C)[C@@H](C)C(=O)O2)[C@@]2(C)CC[C@H]3[C@@H](C[C@H]4O[C@]45CC=CC(=O)[C@]35C)[C@@]12O`, for which the results for the IC50 in the test with MDA-MB-231 and in the test on MCF7 were 1.7 µM and 6.3 µM, respectively.
For the molecule `CC1=C(CO)C(=O)O[C@@H]([C@@H](C)[C@H]2CC[C@H]3[C@@H]4C[C@H]5O[C@]56[C@@H](O)C=CC(=O)[C@]6(C)[C@H]4CC[C@]23C)C1` [WITHAFERIN A], the IC50 (usually the concentration that gives 50% inhibition) with MDA-MB-231 is 0.5 µM.
As for `CC1=C(C)C(=O)O[C@@H]([C@@H](C)[C@H]2CC[C@H]3[C@@H]4C[C@H]5O[C@]56[C@@H](O)C=CC(=O)[C@]6(CO)[C@H]4CC[C@]23C)C1` [WITHALONGOLIDE B], the IC50 in the test on MDA-MB-231 stood at 0.2 µM; in the test on MCF7, 0.8 µM.
